Measurements as given in PubChem BioAssay (NCI).
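The compound was tested at five concentrations on cells cultured in 96-well plates, with a 48-hour exposure period. TGI: concentration producing complete growth inhibition.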

How the values were obtained:
Test in all cases: growth of human tumour cells (NCI), 48 h
[1] = system: COLO 205 colon
[2] = system: IGROV1 ovarian
[3] = system: MDA-MB-231 breast
[4] = system: HT29 colon
[5] = system: T-47D breast
[6] = system: ACHN renal
[7] = system: NCI/ADR-RES ovarian
[8] = system: HCT-15 colon
[9] = system: SF-539 CNS
[10] = system: SNB-75 CNS
[11] = system: OVCAR-5 ovarian
[12] = system: U251 CNS
[13] = system: HCC-2998 colon
[14] = system: MDA-N
[15] = system: SN12C renal
[16] = system: TK-10 renal
[17] = system: PC-3 prostate
[18] = system: SF-295 CNS
[19] = system: UACC-257 melanoma
[20] = system: SK-MEL-2 melanoma
[21] = system: KM12 colon
[22] = system: NCI-H522 lung
[23] = system: UACC-62 melanoma
[24] = system: HL-60(TB) leukemia
[25] = system: MALME-3M melanoma
[26] = system: SW-620 colon
[27] = system: 786-0 renal
[28] = system: MCF7 breast
[29] = system: M14 melanoma
[30] = system: SK-MEL-5 melanoma
[31] = system: BT-549 breast
[32] = system: EKVX NSCLC
[33] = system: OVCAR-8 ovarian
[34] = system: NCI-H23 lung
[35] = system: RPMI-8226 leukemia
[36] = system: HOP-62 NSCLC
[37] = system: MOLT-4 leukemia
[38] = system: OVCAR-4 ovarian
[39] = system: SK-OV-3 ovarian
[40] = system: MDA-MB-435
[41] = system: HCT-116 colon
[42] = system: UO-31 renal
[43] = system: LOX IMVI melanoma
[44] = system: SK-MEL-28 melanoma
[45] = system: A549 NSCLC
[46] = system: NCI-H226 lung
[47] = system: CAKI-1 renal
[48] = system: A498 renal
[49] = system: K-562 leukemia
[50] = system: OVCAR-3 ovarian
[51] = system: CCRF-CEM leukemia
[52] = system: DU-145 prostate
[53] = system: HOP-92 NSCLC
[54] = system: RXF 393 renal
[55] = system: NCI-H460 lung
[56] = system: SF-268 CNS
[57] = system: SR leukemia
[58] = system: HS 578T breast
[59] = system: SNB-19 CNS

Measured: TGI

Cc1nc2c(=S)n(C)ncc2[nH]1
69.7 µM: [25]
not listed: [52] | [53] | [54] | [55] | [56] | [57] | [58] | [59]
> 100 µM: all other assays above

Cc1ccc(NC(=O)C(=O)CC(=O)c2sc(Nc3c(C)cccc3C)nc2C)cc1C
not listed: [10] | [25] | [48]
> 100 µM: all other assays above

O=C(CCc1ccccc1)On1c(-c2ccccc2)nc2ccccc2c1=S
50.5 µM: [11]
8.81 µM: [41]
83.6 µM: [43]
52.1 µM: [32]
47.2 µM: [30]
56.3 µM: [17]
22.6 µM: [25]
37.5 µM: [20]
23.3 µM: [37]
57.3 µM: [54]
79.1 µM: [7]
27.8 µM: [13]
20.7 µM: [9]
24 µM: [21]
28 µM: [34]
44.7 µM: [29]
64.6 µM: [33]
31.5 µM: [36]
67.5 µM: [8]
29.9 µM: [46]
39.3 µM: [42]
36.9 µM: [23]
not listed: [22] | [57]
> 100 µM: all other assays above

CN(C)CCNC(=O)c1cccc2c1Oc1c(cccc1[N+](=O)[O-])O2
3.24 µM: [30]
10.2 µM: [26]
4.94 µM: [54]
5.09 µM: [18]
3.72 µM: [15]
4.85 µM: [9]
5.37 µM: [52]
3.06 µM: [20]
2.48 µM: [36]
15.6 µM: [57]
3.46 µM: [21]
1.77 µM: [23]
10.4 µM: [12]
6.71 µM: [58]
5.78 µM: [4]
1.93 µM: [5]
3.89 µM: [8]
12.6 µM: [14]
4.28 µM: [1]
8.14 µM: [11]
12.5 µM: [17]
3.22 µM: [22]
1.16 µM: [47]
6.34 µM: [19]
7.87 µM: [44]
6.08 µM: [16]
3.4 µM: [41]
16.4 µM: [51]
14.3 µM: [32]
3.42 µM: [45]
3.88 µM: [25]
9.58 µM: [34]
2.62 µM: [13]
12.2 µM: [56]
8.9 µM: [2]
10.5 µM: [43]
2.66 µM: [55]
3.96 µM: [10]
> 100 µM: [24] | [28] | [35] | [38]
3.98 µM: [27]
13.1 µM: [50]
16.2 µM: [29]
2.27 µM: [37]
14.4 µM: [40]
4.78 µM: [48]
7.55 µM: [49]
16.5 µM: [33]
4.66 µM: [31]
0.92 µM: [46]

CSC1NC(c2ccc(Cl)cc2)=C(C#N)C(=O)N1C1OCC(OC(C)=O)C(OC(C)=O)C1OC(C)=O (stereo not given)
not listed: [5] | [20] | [24] | [41] | [45] | [51] | [54]
> 100 µM: all other assays above

CC(C)(C)OC(=O)NCCCCC(NC(=O)c1ccccc1)C(N)=O (stereo not given)
not listed: [2] | [13] | [24] | [46] | [53] | [57]
> 100 µM: all other assays above

CCOC(=O)Cc1nc2c(N)ncnc2n1C1OC(COC(C)=O)C(OC(C)=O)C1OC(C)=O (stereo not given)
not listed: [10] | [11] | [20] | [38] | [54]
> 100 µM: all other assays above
